Data on two compounds can be found in patent US20020086342A1, “Assays for identifying phosphatase inhibitors” (priority 2000, published 2002).

Test [1] concerns the target T1, GST-PTPbr7 (Mus musculus, UniProt Q62132).
T1 construct: purchased PanVera
T1 sequence (Q62132 24-656): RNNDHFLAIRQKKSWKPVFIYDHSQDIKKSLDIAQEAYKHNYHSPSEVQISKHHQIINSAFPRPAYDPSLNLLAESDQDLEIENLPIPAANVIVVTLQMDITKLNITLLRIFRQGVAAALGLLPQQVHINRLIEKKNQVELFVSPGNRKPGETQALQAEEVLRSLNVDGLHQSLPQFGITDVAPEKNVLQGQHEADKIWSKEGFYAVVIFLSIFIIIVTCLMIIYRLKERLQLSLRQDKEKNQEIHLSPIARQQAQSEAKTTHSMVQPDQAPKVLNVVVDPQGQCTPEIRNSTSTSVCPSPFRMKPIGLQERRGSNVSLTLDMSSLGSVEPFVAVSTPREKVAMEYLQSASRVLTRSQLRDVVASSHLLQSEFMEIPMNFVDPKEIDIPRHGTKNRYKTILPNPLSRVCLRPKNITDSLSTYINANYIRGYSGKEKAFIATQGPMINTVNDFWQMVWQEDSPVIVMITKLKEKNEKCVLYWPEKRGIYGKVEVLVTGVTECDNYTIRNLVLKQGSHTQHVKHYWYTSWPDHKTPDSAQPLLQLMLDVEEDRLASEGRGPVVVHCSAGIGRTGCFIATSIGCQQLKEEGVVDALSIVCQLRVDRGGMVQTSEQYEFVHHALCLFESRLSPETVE
Put plainly: PTPbr7 inhibition assay: peptide substrate (malachite green readout). The conditions noted are these: sodium orthovanadate 1 mM; peptide ENDpYINASL 0.1 mM; GST-PTPbr7 4 μg; 30 min, 25° C., pH 7.4; in absence of inhibitor 0.65. The test is classed as biochemical. As for the experimental part:
The ability of a test agent (positive control, non-specific tyrosine phosphatase inhibitor, sodium orthovanadate) to inhibit the dephosphorylation of a peptide having a phosphotyrosine residue by a PTPbr7 fusion protein was determined as follows.GST-PTPbr7 (4 μg, PanVera) is mixed together with the peptide [ENDpYINASL] (0.1 mM, American Peptide Company), with and without sodium orthovanadate (1 mM, SIGMA®-Aldrich), in a total volume of 25 μL assay buffer (50 mM Tris, 0.15 M NaCl, 5 mM DTT, 0.1% BSA), pH 7.4, at 25° C., in separate wells of a ½ volume 96-well microtiter plate (COSTAR #3690 plate), for 30 min.
The reactions were then terminated by the addition of 100 μL of MG/AM stop solution. MG (Malachite Green) solution was obtained from SIGMA®-Aldrich cat no. M9636, and can be prepared by dissolving 500 mg/L in dH2O, filtering the solution with a Whatman #1 filter, and storing at 4° C. AM (Ammonium Molybdate) solution was obtained from SIGMA®Aldrich cat. no. A7302, 42 g/L in 4 M HCl (345 mL concentration HCl/L, stored at 4° C.). MG/AM mixture was prepared by mixing one part AM to 3 parts MG, stirring for at least 30 min, at room temperature, filtering with a Whatman #5, and storing at 4° C. […]
The plate is then incubated at room temperature for 15 min and, after removing any bubbles, the optical density of the solution in each well was read at A620 (620 nm, spectrophotometer). […]

Test [2] concerns the target T1, GST-PTPbr7. Put plainly: PTPbr7 inhibition assay: fluorogenic substrate (O-methyl fluorophosphate). It is filed as biochemical. The conditions noted are these: sodium orthovanadate 1 mM; O-methyl fluorophosphate 10 μM; GST-PTPbr7 4 μg/mL; 30 min, room temperature; in absence of inhibitor 4100.00. The procedure: The ability of a test agent (positive control, non-specific tyrosine phosphatase inhibitor, sodium orthovanadate) to inhibit the dephosphorylation of a fluorogenic substrate by a PTPbr7 fusion protein was determined as follows.
80 μL of the diluted substrate (final concentration of 10 μM) was then added to each of two wells of a 96-well microtiter plate (COSTAR #3690 plate), followed by, in one of the wells, sodium orthovanadate (1 mM, final concentration), and in both wells, 20 μL of GST-PTPbr7 (4 μg, PanVera) to give a final enzyme concentration in each of the assays of 4 μg/mL. The reactions were incubated at room temperature for 30 min. For each reaction, the fluorescent emission was measured by excitation at 485 nm and emission at 535 nm using a Victor II plate reader (Packard). The presence of the test agent (sodium orthovanadate) in the reaction caused a decrease in the fluorescent signal (1250.00) compared to the reaction in the absence of inhibitor (4100.00).

The test system of a further test is PC12 cells. Put plainly: NGF-induced neurite outgrowth in PC12 cell lines transfected with full length mouse PTPbr7. The conditions noted are these: 50 ng/mL NGF for 6 days. It is filed as cell-based, rat. The text has this: Total mouse brain RNA (Strategene) was subjected to RT-PCR cloning using […] as the 5′ primer, and […] as the 3′ primer (CPMB, see, in particular, Chapter 15, The Polymerase Chain Reaction, Supplement 30). The cDNA clone (full length mouse PTPbr7) was introduced into PC12 cells by transfection using Lipofectamine™ Reagent (Life Technologies) and substantially following the instructional sheet (for adherent cells, see also, CPMB, in particular, Chapter 9, Introduction of DNA into Mammalian Cells, Supplement 39) which specifies the concentration of DNA and reagent, cell density, transfection times, and transfection protocol. Stable cell lines were selected in (200 μg/mL) G418 (Life Technologies), as also provided by the instructional sheet, and the overexpressing cell lines were identified by Northern Blot analysis (see CPMB, in particular, Chapter 4, Preparation and Analysis of RNA, Chapter 4.9.1, Analysis of RNA by Northern Blot Hybridization, Supplement 26). The transfected cell lines were then treated with 50 ng/mL NGF (Life Technologies) for 6 days. The degree of neurite outgrowth was quantitated using photomicrographs where the total number of cells in the field was counted, then the cells were recounted that had one or more neurites that were greater than or equal to one cell body diameter in length, and a “% neurites” was determined.

The subject of test [3] is PTPbr7 mRNA in PC12 cells. The conditions noted are these: PC12 cells following treatment with NGF; Sharma and Lombroso 1995; cited from earlier work.

Consider `[Na+].[Na+].[Na+].[O]=[V]([O-])([O-])[O-]` [sodium orthovanadate], for which the “optical density 620 nm” value on GST-PTPbr7 [1] is 0.10. Besides, the “fluorescent signal (excitation 485 nm, emission 535 nm)” value at GST-PTPbr7 [2] amounted to 1250.00.
Turning to “NGF: Nerve growth factor, a neurotrophic factor which mediates the survival, differentiation and maintenance of specific populations of neurons”, the “% Neurite on Day 6 (+NGF)” value with PC12 cells (cell line br7-9, PTPbr7 expression none) came to 52%; with PC12 cells (cell line br7-11, PTPbr7 expression high), 26%; in the test on PC12 cells (cell line br7-12, PTPbr7 expression high), 24%; in the test with PC12 cells (cell line br7-13, PTPbr7 expression high), 32%. Moreover, in test [3], the “upregulation of PTPbr7 mRNA” value was 8 fold.
